# Source: paper PMC6268361, “Development and Validation of a Bioanalytical Method for Quantification of 2,6-Bis-(4-hydroxy-3-methoxybenzylidene)-cyclohexanone (BHMC) in Rat Plasma” (Molecules, 2012)
# How the values were obtained:
# [1] = test system: cellular synthesis of nitric oxide and several proinflammatory cytokines; parameters: method as in PMID 19958764, PMID 21114991; settings: through inhibition of signaling pathways incl. phosphorylation of p38 MAPK; cited from earlier work
# [2] = test system: lethal sepsis in mice; parameters: method as in PMID 21114991; settings: compared with curcumin; cited from earlier work
# [3] = test system: mouse model of inflammatory pain; parameters: method as in PMID 12609665; settings: cited from earlier work
# [4] = Pharmacokinetic study in rats after i.v. administration (HPLC-UV/VIS of plasma, non-compartmental analysis); assay type: in vivo, male Sprague Dawley rats; settings: i.v. 10 mg/kg
# Procedure: Samples were analyzed with a Flexar HPLC system that consisted of a UV/VIS detector, a quaternary pump and a solvent manager with built-in degasser (PerkinElmer, Waltham, MA, USA). The separation was achieved using a Waters Symmetry C18 column (150 × 4.6 mm I.D.; 5 µm; Waters, Milford, MA, USA) protected by a Waters Symmetry C18 Guard Column (20 × 3.9 mm I.D.; 5 µm; Waters, Milford, MA, USA) at ambient temperature. The system’s pump delivered a constant flow of 1 mL/min. The volume of injection was 50 µL. BHMC and IS were eluted with a gradient method that gave an initial flow of 100% water for 1 min, changing linearly to 100% methanol in 11 min. Pure methanol was pumped continuously for 9 min. After this, 100% water was regained to stabilize the chromatographic system for 6 min. BHMC and IS were detected at a visible range of 380 nm. The analyses were repeated according to the gradient elution at every analytical cycle. The chromatograms were analyzed with Chromera Manager 2.1 (PerkinElmer, Waltham, MA, USA).
# Plasma samples (200 µL) were pipetted into 1.5 mL microcentrifuge tubes. To each tube, deionized water (80 µL) was added and the tubes vortexed at medium speed for 20 s. Next, IS (62.5 µg/mL, 40 µL) was added and the mixtures vortexed again at medium speed for 20 s. A volume of 500 µL extraction reagent (95% ethyl acetate, 5% methanol) was loaded into each tube followed by a 60 s sonication and high speed vortexing for 60 s. The tubes were allowed to settle for 5 min followed by centrifugation at 13,500 g for 5 min at a temperature of 15 °C. After centrifugation the upper organic layer was carefully removed into another clean microcentrifuge tube. The organic layer was dried under a stream of nitrogen gas with a low heat setting. The dried extracted product was resuspended in 200 µL of a solution consisting of 10% methanol and 90% deionized water, sonicated for 60 s then vortexed at medium speed for 30 s. The tubes were left at room temperature in the dark for at least 10 min, followed by a repeat vortex mixing. The content was then filtered with 0.45 µm PTFE syringe filters (Titan, West Springfield, MA, USA) into a clean HPLC injection sample vial for HPLC assay.
# Experiments was conducted on male Sprague Dawley rats (8–10 weeks old, 180–200 g) supplied by the Faculty of Veterinary Medicine, Universiti Putra Malaysia. All rats were housed at 23 ± 2 °C with 12 h of light/dark cycle with access to food and water ad libitum. They were acclimatized and habituated to the laboratory condition for at least one week prior to experimentation and were used only once throughout the experiments. All experimental protocols involving animals were performed in accordance with the current guidelines for the care of laboratory animals and the ethical guidelines for animal experimentation Animal Care and Use Committee (ACUC) as approved by the Animal Experimentation Ethics Committee of Universiti Putra Malaysia. Six rats were used. BHMC, solubilized in 5% ethanol (Thermo Fisher Scientific, Waltham, MA, USA), 5% Tween-20 (Sigma-Aldrich, St. Louis, MO, USA) and 90% deionized water, was injected intravenously to each rat at a dose of 10 mg/kg body weight. Blood samples (0.5 mL) were obtained from the tail vein at 5, 15, 30, 60, 120, 240, 480 and 720 min following BHMC administration. In order to prevent coagulation and enable plasma collection 1 µg of heparin sodium was added to each blood sample. Each sample was immediately centrifuged at 3,000 g for 10 min and the plasma was processed as described under sample preparation section. Pharmacokinetic parameters were estimated using non-compartmental pharmacokinetic analysis.
# [5] = parameters: method as in PMID 19110321, PMID 14997198, PMID 17400527, PMID 17999464; settings: cited from earlier work
# [6] = male, Sprague Dawley, rat, plasma, iv, n = 6, mean ± SD, non-compartmental analysis
SMILES,Effect on cellular synthesis of nitric oxide and several proinflammatory cytokines [1],Reduction of mortality following severe sepsis [2],Analgesic effect [3],Time post-treatment up to which quantifiable in plasma of all rats ([4]; LOQ 0.02 µg/mL),"AUC(0-inf) [4, 6]","AUC(0-t) [4, 6]","clearance ([4]; male, Sprague Dawley, rat, plasma, iv, n = 6, mean ± SD, non-compartmental analysis, read-out: Cl (clearance))","Cmax ([4]; male, Sprague Dawley, rat, plasma, iv, n = 6, mean ± SD, non-compartmental analysis, read-out: Cmax (maximum plasma concentration))","half-life ([4]; male, Sprague Dawley, rat, plasma, iv, n = 6, mean ± SD, non-compartmental analysis, read-out: T1/2 (half-life))","Vd ([4]; male, Sprague Dawley, rat, plasma, iv, n = 6, mean ± SD, non-compartmental analysis, read-out: Vd (volume of distribution))",Bioavailability via oral administration [5]
"COc1cc(C=C2CCCC(=Cc3ccc(O)c(OC)c3)C2=O)ccc1O [BHMC, 2,6-bis-(4-hydroxy-3-methoxybenzylidene)-cyclohexanone]",significant inhibitory effects,superior to curcumin in reducing mortality,potential analgesic effect,at least 8 h,989 ng·h/mL,937 ng·h/mL,5.3 ± 0.7 mL/min,2910 ± 150 ng/mL,1.5 ± 0.124 h,0.69 ± 0.038 L,–
"COc1cc(C=CC(=O)CC(=O)C=Cc2ccc(O)c(OC)c2)ccc1O [Curcumin, 1,7-bis(4-hydroxy-3-methoxyphenyl)-1,6-heptadiene-3,5-dione]",–,–,–,–,–,–,–,–,–,–,low bioavailability
